Measured values: ChEMBL document CHEMBL1201862, “PubChem BioAssay data set” (2004)
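Growth conditions: 96-well plates. Treatment: test compound, 48 hours, 5 concentrations. Analysis: linear interpolation between bracketing concentrations; unreached endpoints set to highest concentration. At the GI50, growth is halved.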 Activity calls are given as the source filed them. Cut-off read from the data, not from the text of the source: active = GI50 up to about 1.1 µM and inactive = higher.

Key:
Assay in all cases: inhibition of tumour cell growth, NCI panel, 48 h
A498 = tested on: A498
SNB-75 = tested on: SNB-75
HOP-92 = tested on: HOP-92
OVCAR-5 = tested on: OVCAR-5
COLO 205 = tested on: COLO 205
OVCAR-4 = tested on: OVCAR-4
NCI-H23 = tested on: NCI-H23
DMS-273 = tested on: DMS-273
U-251 = tested on: U-251
SK-MEL-2 = tested on: SK-MEL-2
HCT-15 = tested on: HCT-15
NCI-H460 = tested on: NCI-H460
LOX IMVI = tested on: LOX IMVI
HCT-116 = tested on: HCT-116
IGROV-1 = tested on: IGROV-1
DMS-114 = tested on: DMS-114
SK-MEL-28 = tested on: SK-MEL-28
HT-29 = tested on: HT-29
OVCAR-8 = tested on: OVCAR-8
RXF 393 = tested on: RXF 393
XF498 = tested on: XF498
SNB-19 = tested on: SNB-19
DLD-1 = tested on: DLD-1
786-0 = tested on: 786-0
SN12C = tested on: SN12C
ACHN = tested on: ACHN
SW-620 = tested on: SW-620
KM12 = tested on: KM12
HCC 2998 = tested on: HCC 2998
KM-20L2 = tested on: KM-20L2
HOP-18 = tested on: HOP-18
M19-MEL = tested on: M19-MEL
UACC-257 = tested on: UACC-257
LXFL 529 = tested on: LXFL 529
RPMI-8226 = tested on: RPMI-8226
SNB-78 = tested on: SNB-78
SK-MEL-5 = tested on: SK-MEL-5
M14 = tested on: M14
A549 = tested on: A549
EKVX = tested on: EKVX
CAKI-1 = tested on: CAKI-1
MOLT-4 = tested on: MOLT-4
SF-268 = tested on: SF-268
RXF 631 = tested on: RXF 631
HOP-62 = tested on: HOP-62
SF-295 = tested on: SF-295
OVCAR-3 = tested on: OVCAR-3
TK-10 = tested on: TK-10
SK-OV-3 = tested on: SK-OV-3
SF-539 = tested on: SF-539
K562 = tested on: K562
Malme-3M = tested on: Malme-3M
HL-60 = tested on: HL-60
UACC-62 = tested on: UACC-62
CCRF-CEM = tested on: CCRF-CEM

Compound: CCOc1cc(/C=C/C=C/c2ccc(N(C)C)cc2)[s+]c2ccccc12
- GI50 (A498): 28.2 µM (inactive)
- GI50 (SNB-75): 28.4 µM (inactive)
- GI50 (HOP-92): 23.5 µM (inactive)
- GI50 (OVCAR-5): > 100 µM (inactive)
- GI50 (COLO 205): 34.9 µM (inactive)
- GI50 (OVCAR-4): 16 µM (inactive)
- GI50 (NCI-H23): 34.6 µM (inactive)
- GI50 (DMS-273): 9.31 µM (inactive)
- GI50 (U-251): 5.36 µM (inactive)
- GI50 (SK-MEL-2): 20.4 µM (inactive)
- GI50 (HCT-15): 13.8 µM
- GI50 (NCI-H460): 18.6 µM (inactive)
- GI50 (LOX IMVI): 15.4 µM (inactive)
- GI50 (HCT-116): 21.7 µM (inactive)
- GI50 (IGROV-1): 21.6 µM (inactive)
- GI50 (DMS-114): 5.27 µM (inactive)
- GI50 (SK-MEL-28): 27.2 µM (inactive)
- GI50 (HT-29): 35.8 µM (inactive)
- GI50 (OVCAR-8): 25.6 µM (inactive)
- GI50 (RXF 393): 24.2 µM (inactive)
- GI50 (XF498): 20.8 µM (inactive)
- GI50 (SNB-19): 31.3 µM (inactive)
- GI50 (DLD-1): 23.9 µM (inactive)
- GI50 (786-0): 19 µM (inactive)
- GI50 (SN12C): 35.8 µM (inactive)
- GI50 (ACHN): 30.5 µM (inactive)
- GI50 (SW-620): 30.7 µM (inactive)
- GI50 (KM12): 17.1 µM (inactive)
- GI50 (HCC 2998): 59.6 µM (inactive)
- GI50 (KM-20L2): 71 µM (inactive)
- GI50 (HOP-18): 99.1 µM (inactive)
- GI50 (M19-MEL): 26.2 µM (inactive)
- GI50 (UACC-257): 23.3 µM (inactive)
- GI50 (LXFL 529): 12.3 µM (inactive)
- GI50 (RPMI-8226): 3.2 µM (inactive)
- GI50 (SNB-78): 25.5 µM (inactive)
- GI50 (SK-MEL-5): 11.8 µM (inactive)
- GI50 (M14): 38.7 µM (inactive)
- GI50 (A549): 11.4 µM (inactive)
- GI50 (EKVX): 34.5 µM (inactive)
- GI50 (CAKI-1): 23.7 µM (inactive)
- GI50 (MOLT-4): 6.85 µM (inactive)
- GI50 (SF-268): 18.4 µM (inactive)
- GI50 (RXF 631): 33 µM (inactive)
- GI50 (HOP-62): 7.71 µM (inactive)
- GI50 (SF-295): 33.8 µM (inactive)
- GI50 (OVCAR-3): 14.2 µM (inactive)
- GI50 (TK-10): 33.2 µM (inactive)
- GI50 (SK-OV-3): 34 µM (inactive)
- GI50 (SF-539): 14.1 µM (inactive)
- GI50 (K562): 4.85 µM (inactive)
- GI50 (Malme-3M): 28.9 µM (inactive)
- GI50 (HL-60): 857 nM (active)
- GI50 (UACC-62): 14.4 µM (inactive)
- GI50 (CCRF-CEM): 3.38 µM (inactive)
